Experimental data: ChEMBL document CHEMBL5042522, “One- and Two-Photon Uncaging of Carbon Monoxide (CO) with Real-Time Monitoring: On-Demand Carbazole-Based Dual CO-Releasing Platform to Test over Single and Combinatorial Approaches for the Efficient Regression of Orthotopic Murine Melanoma In Vivo” (J Med Chem, 2022)
The source made the active and inactive calls. No cut-off for these calls is given here.

Assays:
HEK293 [1] = test: Induction of apoptosis in HEK293 cells assessed as necrotic cells at 5 uM with light irradiation incubated for 24 hrs by annexin-V-FITC and PI staining based flow cytometry analysis (reference value: 0 %); assay type: functional, Homo sapiens
[2] = Toxicity in C57BL/6J mouse model harboring mouse B16-F10 cells assessed as kidney tissue necrosis at 0.4 mg/kg, iv administered alternate days for 24 days followed by irradiation with pulsed laser at 730 nm for 10 mins after 24 hrs each post-injection by hematoxylin and eosin staining based assay; assay type: organism-based; conditions: in vivo, 600 h, 0.73 µM, time 25 day
[3] = Biodistribution in liver of C57BL/6 mouse model harboring mouse B16-F10 cells at 0.4 mg/kg, iv irradiated with >= 365 nm Hg lamp for 10 mins measured after 24 hrs post-administration by fluorescence based assay; assay type: ADME, organism-based; conditions: in vivo, 24.17 h, time 1450 min
[4] = Photorelease activity in PBS buffer at pH 7.4 assessed as release of CO using 3',6'-Bis(allyloxy)-3H-spiro(isobenzofuran-1,9'-xanthen)-3-one fluorescent probe by measuring increase in fluorescence intensity irradiated with >= 365 nm Hg lamp at 500 uM in presence of PdCl2 by fluorescence spectroscopy; assay type: physicochemical; conditions: pH 7.4, 500 µM, TDE = time-dependent effect
[5] = Toxicity in C57BL/6J mouse model harboring mouse B16-F10 cells assessed as change in body weight at 0.4 mg/kg, iv administered alternate days for 24 days followed by irradiation with pulsed laser at 730 nm for 10 mins after 24 hrs each post-injection; assay type: organism-based; conditions: in vivo, 600 h, 0.73 µM, time 25 day
[6] = Photorelease ability in PBS buffer at pH 7.4 assessed as compound decomposition at 100 uM irradiated with >= 365 nm Hg lamp upto 30 mins by UV absorption spectroscopy; assay type: physicochemical; conditions: read-out: Drug degradation
[7] = Biodistribution in lung of C57BL/6 mouse model harboring mouse B16-F10 cells at 0.4 mg/kg, iv irradiated with >= 365 nm Hg lamp for 10 mins measured after 24 hrs post-administration by fluorescence based assay; assay type: ADME, organism-based; conditions: in vivo, 24.17 h, time 1450 min
[8] = Photorelease ability in PBS buffer at pH 7.4 assessed as retention time of compound decomposition at 100 uM irradiated with >= 365 nm Hg lamp for 30 mins by RP-HPLC analysis; assay type: physicochemical; conditions: pH 7.4, 0.5 h
B16-F10 [9] = test: Biodistribution in tumor site of C57BL/6 mouse model harboring mouse B16-F10 cells at 0.4 mg/kg, iv irradiated with >= 365 nm Hg lamp for 10 mins measured after 24 hrs post-administration by fluorescence based assay; assay type: ADME, organism-based; conditions: in vivo, 24.17 h, time 1450 min
[10] = Toxicity in C57BL/6J mouse model harboring mouse B16-F10 cells assessed as change in movement at 0.4 mg/kg, iv administered alternate days for 24 days followed by irradiation with pulsed laser at 730 nm for 10 mins after 24 hrs each post-injection by hematoxylin and eosin staining based assay; assay type: organism-based; conditions: in vivo, 600 h, 0.73 µM, time 25 day
B16-F10 [11] = test: Induction of apoptosis in mouse B16-F10 cells assessed as early apoptotic cells at 5 uM with light irradiation incubated for 24 hrs by annexin-V-FITC and PI staining based flow cytometry analysis (reference value: 0 %); assay type: functional
HEK293 [12] = test: Induction of apoptosis in HEK293 cells assessed as late apoptotic cells at 5 uM with light irradiation incubated for 24 hrs by annexin-V-FITC and PI staining based flow cytometry analysis (reference value: 0 %); assay type: functional, Homo sapiens
[13] = Photolysis of compound in PBS buffer at pH 7.4 assessed as compound decomposition by measuring final photoproduct formation at 0.1 mM irradiated with >= 365 nm for 30 mins by RP-HPLC analysis; assay type: physicochemical; conditions: pH 7.4, 0.5 h, 100 µM
B16-F10 [14] = test: Photorelease activity in mouse B16-F10 cells assessed as uncaging of active molecules of drug by measuring green fluorescence at 20 uM incubated for 4 hrs irradiated with >= 365 nm Hg lamp for 5 mins and further incubated for 4 hrs by propidium iodide staining based confocal laser scanning microscopy; assay type: functional, cell-based; conditions: time 8.0 hrs
B16-F10 [15] = test: Cytotoxicity against mouse B16-F10 cells assessed as cell viability at 1.25 to 10 uM irradiated with >= 365 nm Hg lamp for 5 mins after 6 hrs post-treatment and further incubated for 72 hrs by MTT assay; assay type: functional; conditions: dose 1.25-10 µM, time 78 hrs
[16] = Photorelease activity in PBS buffer at pH 7.4 assessed as MbCO formation by measuring change in absorbance intensity at 500 uM irradiated with >= 365 nm Hg lamp for 30 mins in presence of deoxy-myoglobin by absorption spectroscopy; assay type: physicochemical; conditions: pH 7.4, 0.5 h
[17] = Toxicity in C57BL/6J mouse model harboring mouse B16-F10 cells assessed as heart tissue necrosis at 0.4 mg/kg, iv administered alternate days for 24 days followed by irradiation with pulsed laser at 730 nm for 10 mins after 24 hrs each post-injection by hematoxylin and eosin staining based assay; assay type: organism-based; conditions: in vivo, 600 h, 0.73 µM, time 25 day
[18] = Photorelease activity in PBS buffer at pH 7.4 assessed as release of CO using 3',6'-Bis(allyloxy)-3H-spiro(isobenzofuran-1,9'-xanthen)-3-one fluorescent probe at 500 uM irradiated with >= 365 nm Hg lamp for 30 mins in presence of PdCl2 by absorption spectroscopy; assay type: physicochemical; conditions: pH 7.4, 0.5 h
B16-F10 [19] = test: Induction of apoptosis in mouse B16-F10 cells assessed as viable cells at 5 uM with light irradiation incubated for 24 hrs by annexin-V-FITC and PI staining based flow cytometry analysis (reference value: 99.9 %); assay type: functional; conditions: B16-F10, light or radiation study, read-out: Activity
B16-F10 [20] = test: Antitumor activity against mouse B16-F10 cells bearing C57BL/6J mouse assessed as tumor growth inhibition at 0.4 mg/kg, iv administered alternate days for 24 days followed by irradiation with pulsed laser at 730 nm for 10 mins after 24 hrs each post-injection by slide caliper method; assay type: functional, organism-based; conditions: time 25.0 day
B16-F10 [21] = test: Cytotoxicity against mouse B16-F10 cells assessed as cell viability at 2.5 uM irradiated with >= 365 nm Hg lamp for 5 mins after 6 hrs post-treatment and further incubated for 72 hrs by MTT assay; assay type: functional; conditions: B16-F10, light or radiation study, time 78 hrs, read-out: Activity
[22] = Photorelease activity in PBS buffer at pH 7.4 assessed as release of CO at 500 uM irradiated with pulsed laser at 730 nm for 30 mins by absorption spectroscopy; assay type: physicochemical; conditions: pH 7.4, 0.5 h
[23] = Biodistribution in spleen of C57BL/6 mouse model harboring mouse B16-F10 cells at 0.4 mg/kg, iv irradiated with >= 365 nm Hg lamp for 10 mins measured after 24 hrs post-administration by fluorescence based assay; assay type: ADME, organism-based; conditions: in vivo, 24.17 h, time 1450 min

Which results are given for `CCn1c2ccc(-c3coc(=O)o3)cc2c2cc(-c3coc(=O)o3)ccc21`?
Activity (HEK293 [1]): 0%; Activity [2]: Non-Toxic; Drug uptake [3]: Active; Drug metabolism [4]: Tde; Activity [5]: Non-Toxic; degraded at 0.5 h, 100 µM [6]: 100%; Drug uptake [7]: Active; Retention_time [8]: 6.21 min; Drug uptake (B16-F10 [9]): Active; Activity [10]: Non-Toxic; Activity (B16-F10 [11]): 32.8%; Activity (HEK293 [12]): 7.3%; Drug degradation [13]: 89%; Drug metabolism (B16-F10 [14]): 100%; Activity (B16-F10 [15]): 20%; Drug metabolism [16]: Active; Activity [17]: Non-Toxic; Drug metabolism [18]: 12 ppm; viability at 5 µM (B16-F10 [19]): 51.4%; Activity (B16-F10 [20]): Active; viability at 2.5 µM (B16-F10 [21]): 21%; Drug metabolism [22]: 4.5 ppm; Drug uptake [23]: Active
